Here are results for 2 compounds from patent US20260258087A1, “PHARMACEUTICAL COMPOSITION FOR PREVENTING OR TREATING HEPATITIS B” (GWANGJU INSTITUTE OF SCIENCE AND TECHNOLOGY, priority 2022, published 2026).

A short description of series [1]: Caco-2 permeability assay. To be noted: human. (In general: Caco-2 monolayers are a common model of the intestinal barrier.)
Description: Caco-2 permeability assay was performed in triplicate. A 10 μM sample was dissolved in 1% (v/v) DMSO/HBSS solution, and 100 μM verapamil in Hank's Balanced Salt Solution (HBSS) buffer was used as a P-glycoprotein inhibitor. Inserts with Caco-2 cells were pre-incubated with verapamil for 30 min at 37° C., and then incubated for 2 hours at 37° C. without shaking. Efflux ratio was calculated as A to B permeability/B to A permeability. Aliquots (20 μL) were collected at each time point (0.5, 1, 1.5, and 2 hours). Experiments were performed in duplicate.
Series [2] relates to HBV. Format: cell-based, Hepatitis B virus. The following applies: HepG2-NTCP cells. As to the method:
HepG2 cells are representative cells that have immortalized human liver cells, and HepG2-NTCP cells refer to cells that overexpress sodium-taurocholate cotransporting polypeptide (NTCP). HepG2-NTCP cells are representative cells used to confirm the effect of inhibiting HBV host invasion.
HepG2-NTCP cells were grown in DMEM medium containing 10% FBS, penicillin (100 U), and streptomycin (0.1 mg/mL) at 37° C. with […]. […] The HepG2-NTCP cells were incubated with cyclic peptides in 12-well plates for 2 hours. Afterwards, the cells were infected by treating HBV particles (2×10^6 virus/mL) and cyclic peptide together and cultured for 3 hours. After removing the medium containing the virus, the cells were cultured for 16 hours. After the cells were treated with cyclic peptide, intracellular HBV DNA was extracted, purified, and quantified using a gene amplification test. To isolate HBV DNA from host cells, cells were lysed with cell lysis buffer (50 mM Tris-HCl, pH 7.5, 1 mM EDTA, 1% NP40) for 10 minutes on ice. […]. Micrococcal nuclease was inactivated by adding EGTA to a final concentration of […]. Afterwards, intracellular DNA of HBV was extracted using the G-SPIN™ set. […]
In vitro HBV entry inhibition assay based on quantification of intracellular DNA of HBV was performed. […]
The IC50 values are expressed as mean±SD. […]

Turning to `CN(C)C(=O)C(CCN1CCC(O)(c2ccc(Cl)cc2)CC1)(c1ccccc1)c1ccccc1` [loperamide], in series [1] (Caco-2), the apparent permeability from apical to basolateral (Papp A→B) at 2 h, 10 μM was determined as 2.9 ± 2 ×10⁻⁶ cm/s; the Papp B→A at 2 h, 10 μM came out at 27.5 ± 1.6 ×10⁻⁶ cm/s; the efflux ratio at 2 h, 10 μM was determined as 10. This compound also showed a recovery at 2 h, 10 μM in series [1] (Caco-2, A to B % recovery, A to B) of 88 ± 6%. Further, the recovery at 2 h, 10 μM in series [1] (Caco-2, A to B with verapamil % recovery, A to B, 100 μM verapamil) was found to be 78 ± 1%. The compound also had a recovery at 2 h, 10 μM in series [1] (Caco-2, B to A % recovery, B to A) of 85 ± 1%.

In the case of Cyclosporine A [CsA], the “HBV inhibition (%)” value in series [2] (1 μM, intracellular HBV DNA, n=3) is 83 ± 8%. Further, the IC50 in series [2] (mean±SD, read-out: In vitro HBV entry inhibition (IC50)) turned out to be 400 ± 30 nM.

A word on the Papp A→B: it is how fast a substance crosses the layer from the apical side. What is called Papp B→A is the apparent permeability from the basolateral to the apical side of a cell layer. Broadly, the efflux ratio is a quotient of directional permeabilities that is used to spot active efflux. As a reminder, the IC50 is the concentration at which inhibition is half-maximal.
